Data on 1 compound can be found in patent publication US20210009959A1, “METHODS FOR ENHANCING OSTEOGENIC DIFFERENTIATION USING VITAMIN D” (priority 2019, published 2021).

Common to all, as to assay type: cell-based
For experiment [1], the system named is human adipose stem cells (hASCs). Briefly: Metabolic activity / cell proliferation of hASCs in 3D PLGA/β-TCP scaffold, dynamic (perfusion bioreactor) and static (flask) culture. How it is done: In one embodiment, dynamic culture of pre-treated hASCs with calcitriol, using the modified perfusion bioreactor comprises the following steps. In one embodiment, the scaffolds are 3D PLGA/β-TCP. The modified perfusion bioreactor […] comprises five scaffolds, loaded with a total of 70 ml of culture medium as shown in FIG. 2. At another step, 30 ml of the culture medium is replaced twice a week for a total period of two weeks. At another step, the culture medium in the modified perfusion bioreactor 200 is distributed to the five scaffolds with the flow rate of about 5 ml/min using the peristaltic pump 202.
In one embodiment, the method of static culture of pre-treated hASCs is continued in a flask bioreactor with the same volume of culture medium utilized in the dynamic culture. Further, the methods of culturing the hASCs are divided into different groups. In one embodiment, the methods of culturing of hASCs are divided into four groups such as, static culture of non-treated hASCs, static culture of pre-treated hASCs with calcitriol, dynamic culture of non-treated hASCs and dynamic culture of pre-treated hASCs with calcitriol.
Referring to FIG. 9, the effects of dynamic pre-treated/non-treated hASCs versus static pre-treated/non-treated hASCs on metabolic activity or cell proliferation of hASCs is disclosed, where the pre-treated hASCs are seeded in 3D PLGA/β-TCP scaffold. In one embodiment, the hASCs are pre-treated with or without 10 nM calcitriol for 30 minutes and cultured in the modified perfusion bioreactor 200 (dynamic culture) and flask bioreactor (static culture). […] Also, the culturing groups are compared and there is no significant difference between the groups. However, the 14 days of dynamic culture of both non-treated hASCs and pre-treated hASCs increases cell proliferation by 1.1-fold relative to 7 days of culture.
In addition, alamarBlue assay, ALP assay, ALP staining, analysis of osteogenic and angiogenic gene expression and related protein content to evaluate the synergistic effects of flow-induced shear stress using a modified perfusion bioreactor and calcitriol pre-treatment are used for the examinations.

For experiment [2] the test system is unchanged. The experiment in a line: hASC attachment to BCP20/80 scaffolds after calcitriol pre-treatment. How it is done: In one embodiment, a method of static culture of hASCs by pre-treatment with vitamin D3 (calcitriol) and attachment of hASCs to the scaffold used in one-step surgical procedure comprises the following steps. At one step, isolating hASCs as explained in FIG. 1. In an embodiment, the hASCs from three donors at passage 3 are used for further processing. As an optional step, the obtained hASCs are either or not incubated for a period of about 30 mins with low concentrated calcitriol of about 10 nM at room temperature. At next step, the calcitriol treated hASCs are washed twice with Phosphate Buffered Saline (PBS) to remove calcitriol. Further, the washed hASCs are centrifuged and resuspended in Dulbecco's Minimum Essential Medium (DMEM) without any supplements. At another step, the resuspended cells are seeded on the scaffold and allowed to attach to the scaffolds for a period of about 30 minutes. At next step, the scaffolds with attached cells are transferred to 12-well plates with Costar® Transwell® containers (Corning Life Sciences, Lowell, Mass., USA) containing expansion medium (DMEM) supplemented with 10% Fetal Clone I (FCI), antibiotics (1% penicillin/streptomycin/fungizone (PSF)), 50 μM ascorbic acid (Merck, Darmstadt, Germany), and 10 mM β-glycerol phosphate (Merck, Darmstadt, Germany) (PLGA/β-TCP). […]

For experiment [3] the test system is unchanged. The experiment in a line: ALP staining using NBT/BCIP in hASCs. The following applies: 30 min treatment; 2 and 3 weeks of culture; compared to continuous treatment. An excerpt: Referring to FIG. 6, the effect of calcitriol treatment on ALP activity in hASCs by ALP staining using nitro blue tetrazolium chloride/5-bromo-4-chloro-3-indolyl phosphate (NBT/BCIP) is disclosed. […] The increase in ALP activity is confirmed by ALP staining after 14 days of culture. […] The cell distribution is confirmed by 4′,6-diamidino-2-phenylindole (DAPI) staining.

The test system is the same in experiment [4]. The experiment in a line: ALP activity of hASCs seeded in BCP scaffold. How it is done: In one embodiment, a method of static culture of hASCs by pre-treatment with vitamin D3 (calcitriol) and attachment of hASCs to the scaffold used in one-step surgical procedure comprises the following steps. At one step, isolating hASCs as explained in FIG. 1. In an embodiment, the hASCs from three donors at passage 3 are used for further processing. As an optional step, the obtained hASCs are either or not incubated for a period of about 30 mins with low concentrated calcitriol of about 10 nM at room temperature.
At next step, the calcitriol treated hASCs are washed twice with Phosphate Buffered Saline (PBS) to remove calcitriol. Further, the washed hASCs are centrifuged and resuspended in Dulbecco's Minimum Essential Medium (DMEM) without any supplements. At another step, the resuspended cells are seeded on the scaffold and allowed to attach to the scaffolds for a period of about 30 minutes. At next step, the scaffolds with attached cells are transferred to 12-well plates with Costar® Transwell® containers (Corning Life Sciences, Lowell, Mass., USA) containing expansion medium (DMEM) supplemented with 10% Fetal Clone I (FCI), antibiotics (1% penicillin/streptomycin/fungizone (PSF)), 50 μM ascorbic acid (Merck, Darmstadt, Germany), and 10 mM β-glycerol phosphate (Merck, Darmstadt, Germany) (PLGA/β-TCP). At next step, the hASCs seeded scaffolds are incubated at 5% CO2 in a humidified incubator at predefined temperature of about 37° C. for a period of about 3 weeks.
Referring to FIGS. 5A and 5B, the effects of calcitriol treatment on ALP activity of hASCs, where the calcitriol pre-treatment is conducted for a short period of 30 minutes and a long period of about 3 weeks. […] The ALP activity of continuous treated cells with calcitriol is increased by 2.6-fold relative to non-treated cells after 2 weeks of culture.

Structures are written as SMILES.

As for `C=C1/C(=C\C=C2/CCC[C@]3(C)[C@@H]([C@H](C)CCCC(C)(C)O)CC[C@@H]23)C[C@@H](O)C[C@@H]1O` [calcitriol, 1,25-dihydroxyvitamin D3], the “cell proliferation, increase” value in experiment [1] (dynamic culture of pre-treated hASCs, 14 days relative to 7 days of culture) is 1.1 fold; in experiment [1] (dynamic culture of pre-treated hASCs, 14 days, relative to the first day), 10.8 fold; in experiment [1] (dynamic culture of pre-treated hASCs, after 7 days, relative to the first day) it was 9.9 fold; in experiment [1] (static culture of pre-treated hASCs (10 nM, 30 min), after 7 days, relative to the first day) it was 10.6 fold; in experiment [1] (static culture of pre-treated hASCs, 14 days, relative to the first day) it was 1.6 fold. Further, the cell proliferation entry in experiment [1] (perfusion culture of pre-treated vs perfusion culture of non-treated hASCs, after 7 and 14 days) is listed as “slightly decelerates”. The “cell attachment to BCP scaffolds” value in experiment [2] (30 min pre-treatment with 10 nM calcitriol (non-treated 54%)) was found to be 83%. The “cell attachment to BCP scaffolds, increase” value in experiment [2] (30 min pre-treatment with 10 nM calcitriol, vs non-treated cells) amounted to 1.5 fold. Also, in experiment [3], the “ALP activity by ALP staining (NBT/BCIP)” value is reported as “notably increases”. The “ALP activity, increase” value in experiment [4] (30 min pre-treatment, after 2 weeks of culture, vs non-treated cells) turned out to be 18.5 fold; in experiment [4] (30 min pre-treatment, after 3 weeks of culture) it was 2.4 fold; in experiment [4] (continuous treatment with 10 nM, after 2 weeks, vs non-treated cells) it was 2.6 fold. Also, the “ALP activity, change” value in experiment [4] (continuous treatment with 10 nM, at 3 weeks) turned out to be 0.4 fold.
